The source of these data is patent US20260042764A1, “COMPOSITIONS AND METHODS FOR INHIBITION OF KRAS” (TheRas, Inc., priority 2022, published 2026).

A value given as a limit tells only on which side of the number the result lay.

Experiment [1] addresses T1, Avi-KRAS G12D (1-169) GppNHp/RAF1 RBD-3xFLAG (52-151) (Homo sapiens, UniProt P01116, G12D).
T1 construct: Avi-KRAS G12D (1-169)
Put plainly: Raf1-KRAS G12D-GppNHP disruption HTRF assay (Biological Example 1). The experiment is classed as binding. To be noted: KRAS G12D, GppNHp-loaded; Table 11. In a few lines:
(§1)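 Protein mix, 1 h RT, 700 rpm; reagent mix, 1 h RT, 700 rpm; HTRF read. Buffer Tris pH 7.5/NaCl/MgCl2/BSA/Tween, 10% DMSO. Output % activity, DMSO = 100%.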
On the technique in general: TR-FRET usually uses a lanthanide donor and a delayed reading to cut background.

The target in experiment [2] is T2, Avi-KRAS G12R (1-169) GppNHp/RAF1 RBD-3xFLAG (52-151) (Homo sapiens, UniProt P01116, G12R).
T2 construct: Avi-KRAS G12R (1-169)
In words: Raf1-KRAS G12R-GppNHP disruption HTRF assay (Biological Example 1). The experiment is classed as binding. As to conditions: KRAS G12R, GppNHp-loaded; Table 11. As for the experimental part: A protein:protein interaction (PPI) Homogeneous Time Resolved Fluorescence (HTRF) assay was used to determine the effectiveness of compounds of the present disclosure in disrupting KRAS protein and effector RAF1 binding.
The assay buffer included: 50 mM Tris pH 7.5, 100 mM NaCl, 5 mM MgCl2, 0.1% BSA, 0.01% Tween, and 10% DMSO. The bead buffer included: 50 mM Tris pH 7.5, and 0.01% Tween 20. Assay volume of 20 μL was used in a 384 well plate-low volume format.
The HTRF assay employed the following protocol:
Protein mix was prepared in assay buffer, and dispensed on plates, 10 μL per well, then incubated for 1 h at room temperature, with 700 rpm shaking, Reagents mix was prepared and dispensed on plates, 10 μL per well, then incubated for 1 h at room temperature, with 700 rpm shaking.
Data was reported as percentage of activity, with DMSO as 100%. Data was plotted and analyzed using Prism 8.

The target in experiment [3] is T3, Avi-KRAS G12V (1-169) GppNHp/RAF1 RBD-3xFLAG (52-151) (Homo sapiens, UniProt P01116, G12V).
T3 construct: Avi-KRAS G12V (1-169)
Put plainly: Raf1-KRAS G12V-GppNHP disruption HTRF assay (Biological Example 1). The experiment is classed as binding. To be noted: KRAS G12V, GppNHp-loaded; Table 11. The essentials: as §1

In experiment [4] the target is T4, Avi-KRAS WT (1-169) GppNHp/RAF1 RBD-3xFLAG (52-151) (Homo sapiens, UniProt P01116).
T4 construct: Avi-KRAS WT (1-169)
In words: Raf1-KRAS WT-GppNHP disruption HTRF assay (Biological Example 1). It counts as binding. As to conditions: KRAS WT, GppNHp-loaded; Table 11. In a few lines:
as §1

The subject of another experiment is GP2d cells (KRAS G12D). Put plainly: Cell-based pERK HTRF assay in GP2d cell (Biological Example 2). To be noted: GP2d, GP2d (KRAS G12D) cells, pERK HTRF. In a few lines:
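Treatment with test compounds lasted one hour in DMEM containing 10% FBS, with DMSO held at 0.25%. Dilution series: 9 points, half-log spacing, highest 1 μM or 100 nM. Lysates were incubated 4–24 h at room temperature with antibody mix, then HTRF was read at 320 nm excitation.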

Usually IC50 stands for the concentration at which inhibition is half-maximal. Low readings indicate higher potency, high ones lower potency.

T2 sequence (P01116 1-169 isoform P01116-2 G12R): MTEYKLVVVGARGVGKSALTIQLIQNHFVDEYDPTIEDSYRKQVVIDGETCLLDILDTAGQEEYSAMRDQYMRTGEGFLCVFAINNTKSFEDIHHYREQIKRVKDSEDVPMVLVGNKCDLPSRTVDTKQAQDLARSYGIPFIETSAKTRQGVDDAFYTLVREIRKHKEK
T1 sequence (P01116 1-169 isoform P01116-2 G12D): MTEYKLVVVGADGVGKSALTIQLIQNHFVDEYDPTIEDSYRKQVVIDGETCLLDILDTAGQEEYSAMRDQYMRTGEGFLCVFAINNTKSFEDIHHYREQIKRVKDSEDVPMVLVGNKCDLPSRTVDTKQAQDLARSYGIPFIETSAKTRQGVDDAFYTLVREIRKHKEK
T4 sequence (P01116 1-169 isoform P01116-2): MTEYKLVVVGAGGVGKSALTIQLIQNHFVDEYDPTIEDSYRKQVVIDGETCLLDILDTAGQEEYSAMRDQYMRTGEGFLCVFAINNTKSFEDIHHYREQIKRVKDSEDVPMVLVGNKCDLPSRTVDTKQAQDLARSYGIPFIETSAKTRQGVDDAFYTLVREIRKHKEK
T3 sequence (P01116 1-169 isoform P01116-2 G12V): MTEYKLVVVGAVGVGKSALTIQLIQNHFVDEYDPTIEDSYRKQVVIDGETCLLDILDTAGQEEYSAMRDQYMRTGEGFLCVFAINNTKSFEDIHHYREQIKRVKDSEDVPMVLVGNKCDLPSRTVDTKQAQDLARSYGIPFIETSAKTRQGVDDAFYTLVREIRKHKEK

`CN(c1nc(OC[C@@]23CCCN2C[C@H](F)C3)nc2c(F)c(-c3ccc(F)c4sc(N)c(C#N)c34)c(C#N)cc12)[C@H]1C[C@@H](O)C1` [Compound 32, 7-(2-amino-3-cyano-7-fluoro-benzothiophen-4-yl)-8-fluoro-2-[[(2R,8S)-2-fluoro-1,2,3,5,6,7-hexahydropyrrolizin-8-yl]methoxy]-4-[(3-hydroxycyclobutyl)-methyl-amino]quinazoline-6-carbonitrile]: the concentration for half-maximal inhibition (IC50) in experiment [1] is 100 to 1000 nM; in experiment [2], 100 to 1000 nM; in experiment [3], 1000 to 10000 nM; in experiment [4], 100 to 1000 nM; in the experiment with GP2d cells (KRAS G12D) it was 100 to 1000 nM.

In the case of `CN(c1nc(OC[C@@]23CCCN2C[C@H](F)C3)nc2cc(-c3ccc(F)c4sc(N)c(C#N)c34)c(C(F)(F)F)cc12)[C@H]1C[C@@H](O)C1` [Compound 33], the half-inhibitory concentration (IC50) (in experiment [1]; in experiment [2]; in experiment [3]; in experiment [4]; in the experiment on GP2d cells (KRAS G12D)) was 100 to 1000 nM in each case.

For `CN1CCC[C@H]1COc1nc(N(C)[C@H]2C[C@@H](O)C2)c2cc(C(F)(F)F)c(-c3ccc(F)c4sc(N)c(C#N)c34)c(F)c2n1` [Compound 35], the IC50 in experiment [1] was 100 to 1000 nM; in experiment [2], 100 to 1000 nM; in experiment [3], 100 to 1000 nM; in experiment [4], 100 to 1000 nM; in the experiment with GP2d cells (KRAS G12D), below 100 nM.

In the case of `CN(c1nc(OC[C@@]23CCCN2C[C@H](F)C3)nc2c(F)c(-c3ccc(F)c4sc(N)c(C#N)c34)c(C(F)(F)F)cc12)[C@@H]1C[C@H](O)[C@@H]1CO` [Compound 37], the concentration for half-maximal inhibition (IC50) in experiment [1] was below 100 nM; in experiment [2] it was below 100 nM; in experiment [3], 100 to 1000 nM; in experiment [4] it was below 100 nM; in the experiment with GP2d cells (KRAS G12D) it was below 100 nM.

Regarding `CO[C@@H]1C[C@@H](COc2nc(N(C)C3CC(O)C3)c3cc(C(F)(F)F)c(-c4ccc(F)c5sc(N)c(C#N)c45)c(F)c3n2)N(C)C1` (some centres unmarked) [Compound 40], the IC50 in experiment [1] is 100 to 1000 nM; in experiment [2], 100 to 1000 nM; in experiment [3] it was 100 to 1000 nM; in experiment [4], 100 to 1000 nM; in the experiment on GP2d cells (KRAS G12D), below 100 nM.

As for `CN(c1nc(OC[C@@H]2CC3(CC3)CN2C)nc2c(F)c(-c3ccc(F)c4sc(N)c(C#N)c34)c(C(F)(F)F)cc12)C1CC(O)C1` (some centres unmarked) [Compound 41], the half-maximal inhibitory concentration (IC50) in experiment [1] was 100 to 1000 nM; in experiment [2], 100 to 1000 nM; in experiment [3] it was 100 to 1000 nM; in experiment [4], 100 to 1000 nM; with GP2d cells (KRAS G12D), below 100 nM.

In the case of `N#Cc1c(N)sc2c(F)ccc(-c3c(C(F)(F)F)cc4c(N5CCC(CO)CC5)nc(OC[C@@]56CCCN5C[C@H](F)C6)nc4c3F)c12` [Compound 44, 2-amino-7-fluoro-4-(8-fluoro-2-(((2R,7aS)-2-fluorotetrahydro-1H-pyrrolizin-7a(5H)-yl)methoxy)-4-(4-(hydroxymethyl)piperidin-1-yl)-6-(trifluoromethyl)quinazolin-7-yl)benzo[b]thiophene-3-carbonitrile], the half-inhibitory concentration (IC50) was 100 to 1000 nM in experiment [1]; 100 to 1000 nM in experiment [2]; 100 to 1000 nM in experiment [3]; 100 to 1000 nM in experiment [4]; below 100 nM in the experiment with GP2d cells (KRAS G12D).

As for `N#Cc1c(N)sc2c(F)ccc(-c3c(C(F)(F)F)cc4c(N5CCC6(CC5)CC(O)C6)nc(OC[C@@]56CCCN5C[C@H](F)C6)nc4c3F)c12` [Compound 45], the IC50 (in experiment [1]; in experiment [2]; in experiment [3]; in experiment [4]; in the experiment with GP2d cells (KRAS G12D)) was 100 to 1000 nM throughout.

In the case of `N#Cc1c(N)sc2c(F)ccc(-c3c(C(F)(F)F)cc4c(N5CC6CCC(C5)C6CO)nc(OC[C@@]56CCCN5C[C@H](F)C6)nc4c3F)c12` (some centres unmarked) [Compound 47], the IC50 was below 100 nM in experiment [1]; 100 to 1000 nM in experiment [2]; 100 to 1000 nM in experiment [3]; 100 to 1000 nM in experiment [4]; below 100 nM in the experiment with GP2d cells (KRAS G12D).

On to `CC1(CO)CCN(c2nc(OCC34CCCN3CC(F)C4)nc3c(F)c(-c4ccc(F)c5sc(N)c(C#N)c45)c(C(F)(F)F)cc23)CC1` (centres unmarked) [Compound 48], for which the IC50 was 100 to 1000 nM in experiment [1]; 100 to 1000 nM in experiment [2]; 100 to 1000 nM in experiment [3]; 100 to 1000 nM in experiment [4]; below 100 nM with GP2d cells (KRAS G12D).
